Measurements from patent US6759060B2, “Synthetic particulate vectors and preparation process” (Biovector Therapeutics, S.A., priority 1993, dated 2004).
Values joined by “and” are separate entries in the source; they are usually repeats but may differ in a detail not shown here. Equal entries are not always repeated.

Tests used:
[1] = cited from earlier work
[2] = Filterability of ddCTP/PSC (filtration yield); assay type: physicochemical; conditions: ddCTP with or without cationic PSC

| Compound | pKa [1] | Filtration yield % [2] |
| --- | --- | --- |
| COc1cccc2c1C(=O)c1c(O)c3c(c(O)c1C2=O)C[C@@](O)(C(=O)CO)C[C@@H]3O[C@H]1C[C@H](N)[C@H](O)[C@H](C)O1 [Doxorubicin] | 8.5 and 8.2-8.5 | – |
| dideoxy cytidine triphosphate [Free ddCTP] | – | 99.4 ± 0.8% |
